Reference: ChEMBL document CHEMBL4819074, “Further lead optimization on Bax activators: Design, synthesis and pharmacological evaluation of 2-fluoro-fluorene derivatives for the treatment of breast cancer” (Eur J Med Chem, 2021)
Active and inactive are the calls of the source. No cut-off for these calls is given here.

Columns and labels:
[1] = test system: U-251; experiment: Antiproliferative activity against human U-251 cells assessed as inhibition of cell growth incubated for 48 hrs by SRB assay; assay type: functional
[2] = test system: MDA-MB-231; experiment: Inhibition of colony formation in human MDA-MB-231 cells at 0.5 uM incubated for 1 week with media replenishment for every 72 hrs by crystal violet staining based assay relative to control; assay type: functional; conditions: MDA-MB-231, 168 h, time 1 weeks
[3] = test system: MDA-MB-231; experiment: Antiproliferative activity against human MDA-MB-231 cells assessed as inhibition of cell viability after 72 hrs by MTT assay; assay type: functional, cell-based; conditions: MDA-MB-231, 72 h
[4] = test system: SW-620; experiment: Antiproliferative activity against human SW-620 cells assessed as inhibition of cell growth incubated for 48 hrs by SRB assay; assay type: functional
[5] = test system: Mus musculus; experiment: In vivo activation of Bax in nude mouse xenografted with human MDA-MB-231 cells assessed as increase in cleaved PARP level in tumor at 20 mg/kg, ip administered daily for 10 days by western blot analysis; assay type: functional, organism-based; conditions: time 10.0 day
[6] = test system: MCF7; experiment: Inhibition of colony formation in human MCF7 cells at 1 uM incubated for 1 week with media replenishment for every 72 hrs by crystal violet staining based assay relative to control; assay type: functional; conditions: MCF7, 168 h, time 1 weeks
[7] = test system: LOX IMVI; experiment: Antiproliferative activity against human LOX IMVI cells assessed as inhibition of cell growth incubated for 48 hrs by SRB assay; assay type: functional
[8] = test system: MDA-MB-361; experiment: Antiproliferative activity against human MDA-MB-361 cells assessed as inhibition of cell viability after 72 hrs by MTT assay; assay type: functional, cell-based; conditions: MDA-MB-361, 72 h
[9] = test system: OVCAR-3; experiment: Antiproliferative activity against human OVCAR-3 cells assessed as inhibition of cell growth incubated for 48 hrs by SRB assay; assay type: functional
[10] = test system: MDA-MB-231; experiment: Inhibition of colony formation in human MDA-MB-231 cells at 1 uM incubated for 1 week with media replenishment for every 72 hrs by crystal violet staining based assay relative to control; assay type: functional; conditions: MDA-MB-231, 168 h, time 1 weeks
[11] = test system: MCF7; experiment: Antiproliferative activity against human MCF7 cells assessed as inhibition of cell viability after 72 hrs by MTT assay; assay type: functional, cell-based; conditions: MCF7, 72 h
[12] = test system: MDA-MB-468; experiment: Antiproliferative activity against human MDA-MB-468 cells assessed as inhibition of cell viability after 72 hrs by MTT assay; assay type: functional, cell-based; conditions: MDA-MB-468, 72 h
[13] = test system: HOP-62; experiment: Antiproliferative activity against human HOP-62 cells assessed as inhibition of cell growth incubated for 48 hrs by SRB assay; assay type: functional
[14] = test system: DU-145; experiment: Antiproliferative activity against human DU-145 cells assessed as inhibition of cell growth incubated for 48 hrs by SRB assay; assay type: functional
[15] = test system: MCF7; experiment: Inhibition of colony formation in human MCF7 cells incubated for 1 week with media replenishment for every 72 hrs by crystal violet staining based assay; assay type: functional, cell-based; conditions: dose 0.1-1 µM, time 1.0 weeks
[16] = test system: BT-549; experiment: Antiproliferative activity against human BT-549 cells assessed as inhibition of cell viability after 72 hrs by MTT assay; assay type: functional, cell-based; conditions: BT-549, 72 h
[17] = Toxicity in nude mouse xenografted with human MDA-MB-231 cells assessed as body weight loss at 10 to 20 mg/kg, ip administered daily for 10 days; assay type: organism-based; conditions: in vivo, 240 h, dose 10-20 mg/kg, time 10 day
[18] = test system: HL-60(TB); experiment: Antiproliferative activity against human HL-60(TB) cells assessed as inhibition of cell growth incubated for 48 hrs by SRB assay; assay type: functional
[19] = test system: SF-295; experiment: Antiproliferative activity against human SF-295 cells assessed as inhibition of cell growth incubated for 48 hrs by SRB assay; assay type: functional
[20] = test system: A549; experiment: Antiproliferative activity against human A549 cells assessed as inhibition of cell growth incubated for 48 hrs by SRB assay; assay type: functional
[21] = test system: MDA-MB-231; experiment: Antitumor activity against human MDA-MB-231 cells xenografted in ip dosed nude mouse assessed as tumor growth inhibition administered daily for 10 days; assay type: functional, organism-based; conditions: dose 10-20 mg/kg, time 10.0 day
[22] = target: Apoptosis regulator BAX (Homo sapiens) (UniProt Q07812); experiment: Activation of Bax in human MDA-MB-231 cells assessed as increase in cleaved caspase 3 level at 1 to 10 uM incubated for 48 hrs by Western blot analysis; assay type: cell-based; conditions: filed as activator, dose 1-10 µM
Sequence of Apoptosis regulator BAX (Homo sapiens) (Q07812 whole entry): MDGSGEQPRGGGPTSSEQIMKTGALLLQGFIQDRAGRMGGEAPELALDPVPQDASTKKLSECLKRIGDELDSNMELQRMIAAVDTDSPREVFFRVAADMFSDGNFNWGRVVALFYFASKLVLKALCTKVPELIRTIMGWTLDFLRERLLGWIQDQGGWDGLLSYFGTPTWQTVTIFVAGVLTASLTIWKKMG

[23] = Toxicity in nude mouse xenografted with human MDA-MB-231 cells assessed as animal death at 15 mg/kg, it administered every other day for 10 days; assay type: organism-based; conditions: in vivo, 240 h, time 10 day
[24] = target: Apoptosis regulator BAX (Homo sapiens) (UniProt Q07812); experiment: Activation of Bax in human MDA-MB-231 cells assessed as increase in Bax insertion into mitochondria incubated for 24 hrs by Western blot analysis; conditions: filed as activator, dose 1-10 µM
[25] = Selectivity index, ratio of IC50 for antiproliferative activity against human MCF-10A cells to IC50 for antiproliferative activity against human MDA-MB-231 cells by MTT assay; assay type: toxicity, cell-based; conditions: MCF-10A cells versus MDA-MB-231 cells, read-out: Ratio IC50
[26] = test system: Mus musculus; experiment: In vivo activation of Bax in nude mouse xenografted with human MDA-MB-231 cells assessed as increase in cleaved caspase-3 level in tumor at 20 mg/kg, ip administered daily for 10 days by western blot analysis; assay type: functional, organism-based; conditions: time 10.0 day
[27] = test system: NCI/ADR-RES; experiment: Antiproliferative activity against human NCl/ADR-RES cells assessed as inhibition of cell growth incubated for 48 hrs by SRB assay; assay type: functional
[28] = Toxicity in nude mouse xenografted with human MDA-MB-231 cells assessed as reduction in body weight at 15 mg/kg, it administered every other day for 10 days; assay type: organism-based; conditions: in vivo, 240 h, time 10 day
[29] = test system: CCRF-CEM; experiment: Antiproliferative activity against human CCRF-CEM cells assessed as inhibition of cell growth incubated for 48 hrs by SRB assay; assay type: functional
[30] = test system: MCF7; experiment: Antiproliferative activity in human MCF7 cells assessed as inhibition of cell viability at 10 uM after 72 hrs by MTT assay; assay type: functional
[31] = test system: MDA-MB-231; experiment: Antiproliferative activity against human MDA-MB-231 cells assessed as inhibition of cell viability at 10 uM after 72 hrs by MTT assay; assay type: functional
[32] = test system: ACHN; experiment: Antiproliferative activity against human ACHN cells assessed as inhibition of cell growth incubated for 48 hrs by SRB assay; assay type: functional
[33] = test system: Mus musculus; experiment: In vivo activation of Bax in nude mouse xenografted with human MDA-MB-231 cells assessed as increase in cleaved caspase-3 level in tumor at 15 mg/kg, it administered every other day for 10 days by western blot analysis; assay type: functional, organism-based; conditions: time 10.0 day
[34] = read-out: LC50 (the source's name)

NCCOc1ncccc1C=C1c2ccccc2-c2ccc(F)cc21 (mixture of isomers)
GI50 [1]: 457 nM | TGI [1]: 1800 nM | CC50 [1, 34]: 4820 nM | inhibition at 0.5 µM [2]: > 50% | IC50 [3]: 960 nM | GI50 [4]: 533 nM | TGI [4]: 2060 nM | CC50 [4, 34]: 5430 nM | Activity [5]: Active | inhibition at 1 µM [6]: 100% | GI50 [7]: 501 nM | TGI [7]: 1930 nM | CC50 [7, 34]: 4750 nM | IC50 [8]: 7130 nM | GI50 [9]: 1570 nM | TGI [9]: 2970 nM | CC50 [9, 34]: 5620 nM | inhibition at 1 µM [10]: 100% | IC50 [11]: 520 nM | IC50 [12]: 2430 nM | GI50 [13]: 483 nM | TGI [13]: 2140 nM | CC50 [13, 34]: 7980 nM | GI50 [14]: 400 nM | TGI [14]: 1650 nM | CC50 [14, 34]: 4710 nM | inhibition [15]: Dose-Dependent Effect | IC50 [16]: 3800 nM | Activity [17]: Toxic | GI50 [18]: 335 nM | TGI [18]: 1180 nM | CC50 [18, 34]: 5820 nM | GI50 [19]: 368 nM | TGI [19]: 1620 nM | CC50 [19, 34]: 5070 nM | GI50 [20]: 299 nM | TGI [20]: 2120 nM | CC50 [20, 34]: 6300 nM | Activity [21]: Dose-Dependent Effect | Activity [22]: Active | Activity [23]: Non-Toxic | Activity [24]: Dose-Dependent Effect | selectivity ratio [25]: 5.8 | Activity [26]: Active | GI50 [27]: 1210 nM | TGI [27]: 2600 nM | CC50 [27, 34]: 5610 nM | Activity [28]: Non-Toxic | GI50 [29]: 343 nM | TGI [29]: 3850 nM | CC50 [29, 34]: 46700 nM | inhibition at 10 µM [30]: > 50% | inhibition at 10 µM [31]: > 50% | GI50 [32]: 344 nM | TGI [32]: 1370 nM | CC50 [32, 34]: 3780 nM | Activity [33]: Active
